Assay results taken from PubChem BioAssay (NCI).
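Growth conditions: 96-well plates. Treatment: test compound, 48 hours, 5 concentrations. Analysis: linear interpolation between bracketing concentrations; unreached endpoints set to highest concentration. At the GI50, growth is halved. TGI is the concentration that stops growth completely.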

Legend:
Assay in all cases: NCI anticancer screen, dose series, 48 h; in the data active = GI50 below about 0.43 µM; inactive = the rest
[1] = system: 786-0 renal
[2] = system: A549 NSCLC
[3] = system: CAKI-1 renal
[4] = system: CCRF-CEM leukemia
[5] = system: COLO 205 colon
[6] = system: DLD-1 colon
[7] = system: DMS 273 small cell lung
[8] = system: EKVX NSCLC
[9] = system: HCC-2998 colon
[10] = system: HCT-116 colon
[11] = system: HCT-15 colon
[12] = system: HL-60(TB) leukemia
[13] = system: HOP-62 NSCLC
[14] = system: HOP-92 NSCLC
[15] = system: HT29 colon
[16] = system: IGROV1 ovarian
[17] = system: K-562 leukemia
[18] = system: KM12 colon
[19] = system: KM20L2 colon
[20] = system: LOX IMVI melanoma
[21] = system: M14 melanoma
[22] = system: M19-MEL melanoma
[23] = system: MALME-3M melanoma
[24] = system: MOLT-4 leukemia
[25] = system: NCI-H226 lung
[26] = system: NCI-H23 lung
[27] = system: NCI-H460 lung
[28] = system: NCI-H522 lung
[29] = system: OVCAR-3 ovarian
[30] = system: OVCAR-4 ovarian
[31] = system: OVCAR-5 ovarian
[32] = system: RPMI-8226 leukemia
[33] = system: RXF 393 renal
[34] = system: SF-268 CNS
[35] = system: SF-295 CNS
[36] = system: SF-539 CNS
[37] = system: SK-MEL-2 melanoma
[38] = system: SK-MEL-28 melanoma
[39] = system: SK-MEL-5 melanoma
[40] = system: SK-OV-3 ovarian
[41] = system: SNB-19 CNS
[42] = system: SNB-75 CNS
[43] = system: SNB-78 CNS
[44] = system: SR leukemia
[45] = system: SW-620 colon
[46] = system: TK-10 renal
[47] = system: U251 CNS
[48] = system: UACC-257 melanoma
[49] = system: UACC-62 melanoma
[50] = system: UO-31 renal
[51] = system: XF 498 CNS
[52] = system: A498 renal
[53] = system: ACHN renal
[54] = system: DMS 114 small cell lung
[55] = system: HOP-18 NSCLC
[56] = system: OVCAR-8 ovarian
[57] = system: SN12C renal
[58] = system: LXFL 529 NSCLC

O=c1[nH][nH]c(=O)[nH]1
> 100 µM: TGI [1] | TGI [2] | TGI [3] | TGI [4] | TGI [5] | TGI [6] | TGI [7] | TGI [8] | TGI [9] | TGI [10] | TGI [11] | TGI [12] | TGI [13] | TGI [14] | TGI [15] | TGI [16] | TGI [17] | TGI [18] | TGI [19] | TGI [20] | TGI [21] | TGI [22] | TGI [23] | TGI [24] | TGI [25] | TGI [26] | TGI [27] | TGI [28] | TGI [29] | TGI [30] | TGI [31] | TGI [32] | TGI [33] | TGI [34] | TGI [35] | TGI [36] | TGI [37] | TGI [38] | TGI [39] | TGI [40] | TGI [41] | TGI [42] | TGI [43] | TGI [44] | TGI [45] | TGI [46] | TGI [47] | TGI [48] | TGI [49] | TGI [50] | TGI [51]

CCOC(=O)c1cc(/C=C/C(C)=C/C(=O)OC)oc1-c1ccccc1
> 100 µM: TGI [1] | TGI [52] | TGI [2] | TGI [53] | TGI [3] | TGI [4] | TGI [5] | TGI [6] | TGI [54] | TGI [7] | TGI [8] | TGI [9] | TGI [10] | TGI [11] | TGI [12] | TGI [55] | TGI [15] | TGI [16] | TGI [17] | TGI [18] | TGI [19] | TGI [20] | TGI [21] | TGI [22] | TGI [23] | TGI [24] | TGI [25] | TGI [26] | TGI [27] | TGI [28] | TGI [29] | TGI [30] | TGI [31] | TGI [56] | TGI [32] | TGI [34] | TGI [35] | TGI [36] | TGI [37] | TGI [39] | TGI [40] | TGI [57] | TGI [41] | TGI [45] | TGI [46] | TGI [47] | TGI [48] | TGI [49] | TGI [50] | TGI [51]

CC(=O)[CH-]C(=O)c1ccccc1.CC(=O)[CH-]C(=O)c1ccccc1.COc1cccc([O-])c1[O-].[Ti+4]
63.5 µM: TGI [55]
73 µM: TGI [25]
65.6 µM: TGI [36]
> 100 µM: TGI [1] | TGI [52] | TGI [2] | TGI [53] | TGI [3] | TGI [4] | TGI [5] | TGI [6] | TGI [9] | TGI [10] | TGI [11] | TGI [13] | TGI [14] | TGI [15] | TGI [16] | TGI [17] | TGI [18] | TGI [19] | TGI [20] | TGI [58] | TGI [21] | TGI [23] | TGI [24] | TGI [27] | TGI [29] | TGI [30] | TGI [31] | TGI [56] | TGI [32] | TGI [33] | TGI [34] | TGI [35] | TGI [38] | TGI [39] | TGI [40] | TGI [57] | TGI [41] | TGI [42] | TGI [45] | TGI [46] | TGI [47] | TGI [48] | TGI [49] | TGI [50]
62.4 µM: TGI [37]
inactive: GI50 [1] 49 µM | GI50 [52] 72.5 µM | GI50 [2] > 100 µM | GI50 [53] 94.9 µM | GI50 [3] > 100 µM | GI50 [4] 6.42 µM | GI50 [5] 37.9 µM | GI50 [6] 69.2 µM | GI50 [9] 90.2 µM | GI50 [10] 32.1 µM | GI50 [11] 50.2 µM | GI50 [12] 20.3 µM | GI50 [55] 25.9 µM | GI50 [13] 71.4 µM | GI50 [14] 57.8 µM | GI50 [15] 64.5 µM | GI50 [16] > 100 µM | GI50 [17] 31.6 µM | GI50 [18] 33.4 µM | GI50 [19] 52.2 µM | GI50 [20] 25 µM | GI50 [58] 34.3 µM | GI50 [21] 64.9 µM | GI50 [22] 32.4 µM | GI50 [23] 33.4 µM | GI50 [24] 33.1 µM | GI50 [25] 15.9 µM | GI50 [27] 52 µM | GI50 [28] 17.2 µM | GI50 [29] 40.5 µM | GI50 [30] 54.3 µM | GI50 [31] > 100 µM | GI50 [56] 42.4 µM | GI50 [32] 57.1 µM | GI50 [33] 30 µM | GI50 [34] 47.6 µM | GI50 [35] 70.4 µM | GI50 [36] 24.4 µM | GI50 [37] 24.8 µM | GI50 [38] 31 µM | GI50 [39] 93.3 µM | GI50 [40] 53.9 µM | GI50 [57] 49.1 µM | GI50 [41] 64.3 µM | GI50 [42] 43.5 µM | GI50 [45] 52.6 µM | GI50 [46] > 100 µM | GI50 [47] 25.7 µM | GI50 [48] > 100 µM | GI50 [49] 39.9 µM | GI50 [50] > 100 µM
89.7 µM: TGI [22]
98.2 µM: TGI [12]
31.7 µM: TGI [28]
